Each structure is given as a SMILES string. A value given as a limit tells only on which side of the number the result lay.

The first assay has as its system CL097 triggered IFNα release in human whole blood. Put plainly: Ex vivo human IFNα release inhibition (human whole blood assay). The format is cell-based. Conditions: CL097 2 μg/mL, 3 h 30 min at 37° C. The text has this: 4.10.1. Ex Vivo Human IFNα and TNFα Release Inhibition (Human Whole Blood Assay)
The aim of the assay is to evaluate the activity of compounds of the invention on the activated TLR/IRAK-4 pathway in an ex vivo human whole blood setting. Toll-like receptors (TLRs) are pattern recognition receptors that recognize a wide variety of microbial molecules, called pathogen-associated molecular patterns (PAMPs). Human TLR7 and TLR8 recognize imidazoquinoline compounds (e.g., CL097—CAS n #1026249-18-2) and single stranded RNAs as their natural ligands. Activation of TLRs leads to the production of several cytokines (e.g., IFNα, TNFα, IL-8, IL-6) by the TLR agonist-treated cells, whereas IRAK4 leads to the production of IFNα. Cytokine release is used as readout in this assay and represents a measure for the level of inhibition of the TLR/IRAK-4 pathway by the tested compound. It should be noted that in the context of the complete organism, other sources for these cytokines exist that are not dependent on the TLR/IRAK-4 pathway, such as e.g., macrophages (upon activation of the Fcγ receptor (Yan et al., 2012)) or T cells (upon activation of the T cell receptor (Brehm et al., 2005)).
4.10.1.1. Experimental Design
Blood was collected from healthy volunteers into lithium heparin tubes by venipuncture, then gently inverted several times to prevent clotting and incubated for at least 15 min at 37° C. on a rocking mixer shaker. Then, 100 μL of blood was dispensed into polypropylene 96-well microplate and pre-incubated in duplicate with 0.3% DMSO or test compound at different concentrations (from 30 to 0.01 μM, 3-fold dilutions to get 0.3% DMSO at the final) for 15 min at 37° C. After this pre-incubation, blood was triggered with CL097 (2 μg/mL from 1 mg/mL solution in water; InvivoGen, tlrl-c97) for 3 h 30 min at 37° C. Microtubes were centrifuged at 5000×g for 10 min at 4° C. and approximately 40 μL of plasma were collected into a polystyrene 96-well plate. Plasma could be analyzed freshly, within 30 min after triggering, or frozen at −80° C. Finally, the quantification of TNFα and IFNα were performed in the plasma using AlphaLISA Kit for TNFα and IFNα according to the manufacturer's instructions and read on the Ensight (PerkinElmer).
A standard curve was created by plotting on log-log the mean […] on the y-axis against the concentration on the x-axis and a 4-parameters logistic regression (4PL) was made through the points. For each blood sample, the IFNα concentrations of the samples were determined from the fit. Data were then expressed as a percentage of inhibition (PIN) for each replicate using the formula:
With mean IFNα with CL097=mean IFNα concentration of replicate samples triggered with CL097; IFNαsample1=IFNα concentration of sample 1; mean IFNα with vehicle=mean IFNα concentration of replicate samples treated with vehicle.
Curve fitting for pIC50 determination were generated using mean PIN±sem. Graphs and pIC50 calculations were derived using Prism 5.03 software (GraphPad).
On to `COc1cn2nc(CC(F)C(C)(C)O)cc2cc1NC(=O)c1cccn(C2CC2)c1=O` (single isomer, unassigned; enantiomer b) [Compound 26, 1-cyclopropyl-N-[2-(2-fluoro-3-hydroxy-3-methyl-butyl)-6-methoxy-pyrazolo[1,5-a]pyridin-5-yl]-2-oxo-pyridine-3-carboxamide Enantiomer B], for which the half-inhibitory concentration (IC50) is 1 to 5 µM.

Still in this assay, the particulars now being: Homo sapiens, CL097 2 μg/mL, 3 h 30 min at 37° C.
Take `COc1cn2nc(CC(F)C(C)(C)O)cc2cc1NC(=O)c1cccn(C2CC2)c1=O` (centres unmarked) [Compound 22, 1-cyclopropyl-N-[2-(2-fluoro-3-hydroxy-3-methyl-butyl)-6-methoxy-pyrazolo[1,5-a]pyridin-5-yl]-2-oxo-pyridine-3-carboxamide]: the 50% inhibitory concentration (IC50) fell in the range of 0.5 to 1 µM.
Compound `[2H]C([2H])([2H])Oc1cn2nc(CCC(C)(C)O)cc2cc1NC(=O)c1cccn(C2CC2)c1=O` [Compound 24, 1-cyclopropyl-N-[2-(3-hydroxy-3-methylbutyl)-6-(trideuteriomethoxy)pyrazolo[1,5-a]pyridin-5-yl]-2-oxopyridine-3-carboxamide] showed a half-maximal inhibitory concentration (IC50) of 0.0001 to 0.5 µM.
The same measure, in the same setting: then `CNC(=O)c1cn2nc(C3CCOCC3)cc2cc1NC(=O)c1cccc(C(F)F)n1` [Compound 15, 5-[[6-(difluoromethyl)pyridine-2-carbonyl]amino]-N-methyl-2-tetrahydropyran-4-yl-pyrazolo[1,5-a]pyridine-6-carboxamide], with more than 5 µM; and `CNC(=O)c1cn2nc(CCC(C)(C)O)cc2cc1NC(=O)c1cccc(C(F)F)n1` [Compound 19, 5-[[6-(difluoromethyl)pyridine-2-carbonyl]amino]-2-(3-hydroxy-3-methyl-butyl)-N-methyl-pyrazolo[1,5-a]pyridine-6-carboxamide], with 0.5 to 1 µM; and `[2H]C([2H])([2H])C(O)(CCc1cc2cc(NC(=O)c3cccn(C4CC4)c3=O)c(OC)cn2n1)C([2H])([2H])[2H]` [Compound 23, 1-cyclopropyl-N-[6-methoxy-2-[4,4,4-trideuterio-3-hydroxy-3-(trideuteriomethyl)butyl]pyrazolo[1,5-a]pyridin-5-yl]-2-oxo-pyridine-3-carboxamide], with 0.5 to 1 µM.
On the same count and under the same terms, then `CC(C)(O)CCc1cc2cc(NC(=O)c3cccc(C(F)(F)F)n3)c(C(N)=O)cn2n1` [Compound 4, 2-(3-hydroxy-3-methylbutyl)-5-[[6-(trifluoromethyl)pyridine-2-carbonyl]amino]pyrazolo[1,5-a]pyridine-6-carboxamide], with 1 to 5 µM; and `COc1cn2nc(CC(F)C(C)(C)O)cc2cc1NC(=O)c1cccn(C2CC2)c1=O` (single isomer, unassigned; enantiomer a) [Compound 25, 1-cyclopropyl-N-[2-(2-fluoro-3-hydroxy-3-methyl-butyl)-6-methoxy-pyrazolo[1,5-a]pyridin-5-yl]-2-oxo-pyridine-3-carboxamide Enantiomer A], with 0.5 to 1 µM.

The term IC50 denotes the concentration needed to halve the response being measured. Lower therefore signals greater potency.

The values are drawn from patent US20220218679A1, “NOVEL COMPOUNDS AND PHARMACEUTICAL COMPOSITIONS THEREOF FOR THE TREATMENT OF INFLAMMATORY DISORDERS” (Galapagos NV, priority 2019, published 2022).
